Test results as given in patent US20170333515A1, “COMPOSITIONS AND METHODS FOR ENHANCING THE METABOLIC ACTIVITY OR STABILITY OF CURCUMIN” (priority 2015, published 2017).

Legend:
in vitro [1] = assay: in vitro
Experimental: The objective of this study was to determine the stability of curcumin in human liver microsomes in the absence and presence of xanthohumol at a concentration of 10 μM, which is 10 fold higher than the previous study.
The objective of this study was to determine the stability of curcumin in human liver microsomes in the absence and presence of 10 μM xanthohumol.
(§1) Mixed-gender human liver microsomes (Lot #1210347) were purchased from XenoTech. The reaction mixture, minus cofactors, was prepared as described below. The test article was added into the reaction mixture at a final concentration of 1 μM. A second experiment was also performed with 10 μM xanthohumol also present in the reaction mixture. The control compounds, testosterone and 7-hydroxycoumarin (7-HC), were run simultaneously with the test article in separate reactions. An aliquot of the reaction mixture (without cofactors) was equilibrated in a shaking water bath at 37° C. for 3 minutes. The reaction was initiated by the addition of cofactors, and the mixture was incubated in a shaking water bath at 37° C. Aliquots (100 μL) were withdrawn at 0, 10, 20, 30, and 60 minutes for the test article and 0, 10, 30, and 60 minutes for testosterone and 7-HC. All samples were immediately combined with 400 μL of ice-cold 50/50 acetonitrile/H2O containing 0.1% formic acid and internal standard to terminate the reaction. The samples were then mixed and centrifuged to precipitate proteins. All samples were assayed by LC-MS/MS using electrospray ionization. Analytical conditions are outlined in Appendix 1. The peak area response ratio (PARR) to internal standard was compared to the PARR at time 0 to determine the percent remaining at each time point. Half-lives were calculated using GraphPad software, fitting to a single-phase exponential decay equation.

in vitro [2] = conditions: both
Experimental: The objective of this study was to determine the stability of curcumin in human liver microsomes in the absence and presence of xanthohumol at a concentration of 1 μM.
as §1, with “μM.” for “μM. A”, “with 1” for “with 10”

[3] = both, human, microsomes, Half-life

O=c1ccc2ccc(O)cc2o1 [7-HC, 7-hydroxycoumarin]
microsomal CLint (in vitro [1]; both, human, microsomes, CLint): 120 µL/min/mg
half-life (in vitro [1]; [3]): 12 min
half-life (in vitro [2]; human, microsomes): 10 min
microsomal CLint (in vitro [2]; human, microsomes): 136 µL/min/mg

COc1cc(C=CC(=O)CC(=O)C=Cc2ccc(O)c(OC)c2)ccc1O [Curcumin, 1,7-Bis(4-hydroxy-3-methoxyphenyl)-1,6-heptadiene-3,5-dione]
half-life (in vitro [1]; both, human, microsomes, 1 μM): < 10 min
microsomal CLint at 1 μM (in vitro [1]; both, human, microsomes, CLint): > 139 µL/min/mg
microsomal CLint at 1 μM (in vitro [1]; both, human, microsomes, CLint (value in parentheses)): 296 µL/min/mg
half-life at 1 μM (in vitro [1]; [3]): < 10 min
half-life at 1 μM (in vitro [1]; both, human, microsomes, Half-life (value in parentheses)): 4.7 min
half-life at 1 μM (in vitro [2]; human, microsomes): 4.4 min
microsomal CLint at 1 μM (in vitro [2]; human, microsomes): 313 µL/min/mg

C[C@]12CC[C@H]3[C@@H](CCC4=CC(=O)CC[C@@]43C)[C@@H]1CC[C@@H]2O [Testosterone, testosterone]
microsomal CLint (in vitro [1]; both, human, microsomes): 57.7 µL/min/mg
half-life (in vitro [1]; control compounds, human liver microsomes, separate reactions, Example 4): 24 min
microsomal CLint (in vitro [2]): 74 µL/min/mg
